Values quoted from earlier work, collected in patent US20250195566A1, “ORAL PHARMACEUTICAL COMPOSITION FOR PREVENTING AND/OR TREATING DISEASES OF THE SOFT AND HARD TISSUES SURROUNDING THE TOOTH IN THE ORAL CAVITY” (priority 2021, published 2025).

Tests used:
[1] = system: 52 bacteria isolated from subgingival plaque; conditions: bacteria isolated from patients with periodontitis
[2] = system: supragingival bacterial plaque and gingival inflammation; conditions: clinical results

**Q.** For N=C(NCCCCCCNC(=N)NC(=N)Nc1ccc(Cl)cc1)NC(=N)Nc1ccc(Cl)cc1 [chlorhexidine, Chlorhexidine], which “concentration at which all bacteria were inhibited” value [1] is on record?
**A.** 250 mg/mL

**Q.** And the “reduction of gingival inflammation” value [2]?
**A.** 45%

**Q.** What about the “reduction of supragingival bacterial plaque” value [2] of the same compound?
**A.** 55%
